Source: US7692030B2, “Conjugates of artemisinin-related endoperoxides and hydrazone derivatives for the treatment of cancer” (University of Washington, priority 2006, dated 2010)

What was measured:
Assay type in all cases: cell-based
786-0 = assay: NCI DTP human tumor cell line screen (SRB); settings: Renal Cancer, 10 μM, 48 h
Procedure: (§1) Representative compounds of the invention, prepared as described in EXAMPLES 1-6, were submitted to the Developmental Therapeutics Program of the United States National Cancer Institute (NCl) to screen for anti-cancer activity. The anti-cancer activities of the six compounds were tested against approximately 60 human tumor cell lines representing leukemia, melanoma, and cancers of the lung, colon, breast, ovary, kidney, prostate, and brain. The following screening methodology was provided by the NCl. […] For experimental screens, cells were inoculated into 96 well microtiter plates in 100 μL at plating densities ranging from 5,000 to 40,000 cells/well depending on the doubling time of individual cell lines. After cell inoculation, the microtiter plates were incubated at 37° C., 5% carbon dioxide, 95% air and 100% relative humidity for 24 hours prior to addition of the compounds. After 24 hours of incubation, two plates of each cell line were fixed in situ with trichloroacetic acid (TCA) to represent a measurement of the cell population for each cell line at the time of compound addition (Tz). The compounds were solubilized in dimethyl sulfoxide at 400-fold the desired final maximum test concentration and stored frozen prior to use. At the time of drug addition, frozen aliquots of the compounds thawed and diluted with complete medium containing 50 μg/ml gentamicin. Aliquots of 100 μl of these different compound dilutions were added to the appropriate microtiter wells already containing 100 μl of medium, resulting in the required final compound concentration of 10 μM. Following compound addition, the plates were incubated for an additional 48 h at 37° C., 5% carbon dioxide, 95% air, and 100% relative humidity. For adherent cells, the assay was terminated by the addition of cold TCA. Cells were fixed in situ by the gentle addition of 50 μl of cold 50% (w/v) TCA (final concentration, 10% TCA) and incubated for 60 minutes at 4° C. The supernatant was discarded, and the plates were washed five times with tap water and air dried. Sulforhodamine B (SRB) solution (100 μl) at 0.4% (w/v) in 1% acetic acid was added to each well, and plates were incubated for 10 minutes at room temperature. After staining, unbound dye was removed by washing five times with 1% acetic acid and the plates were air dried. Bound stain was subsequently solubilized with 10 mM trizma base, and the absorbance was read on an automated plate reader at a wavelength of 515 nm. For suspension cells, the methodology was the same except that the assay was terminated by fixing settled cells at the bottom of the wells by gently adding 50 μl of 80% TCA (final concentration, 16% TCA). Using the three absorbance measurements [time zero, (Tz), control growth, (C), and test growth in the presence of compound (Ti)], the percentage growth was calculated at each of the compound concentrations levels. Percentage growth inhibition was calculated with the following algorithms: [(Ti−Tz)/(C−Tz)]×100 for concentrations for which Ti>/=Tz [(Ti−Tz)/Tz]×100 for concentrations for which Ti<Tz The results of the NCl in vitro anticancer screening with six compounds against various human tumor cell lines are presented below in Tables 2-7. […] The growth percent mean, delta, and range for each compound are given below.

BT-549 = assay: NCI DTP human tumor cell line screen (SRB); settings: Breast Cancer, 10 μM, 48 h
Procedure: as §1

HCC-2998 = assay: NCI DTP human tumor cell line screen (SRB); settings: Colon Cancer, 10 μM, 48 h
Procedure: as §1

HCT-15 = assay: NCI DTP human tumor cell line screen (SRB); settings: Colon Cancer, 10 μM, 48 h
Procedure: as §1

HOP-62 = assay: NCI DTP human tumor cell line screen (SRB); settings: Non-Small Cell Lung Cancer, 10 μM, 48 h
Procedure: as §1

HOP-92 = assay: NCI DTP human tumor cell line screen (SRB); settings: Non-Small Cell Lung Cancer, 10 μM, 48 h
Procedure: as §1

HT29 = assay: NCI DTP human tumor cell line screen (SRB); settings: Colon Cancer, 10 μM, 48 h
Procedure: as §1

M14 = assay: NCI DTP human tumor cell line screen (SRB); settings: Melanoma, 10 μM, 48 h
Procedure: as §1

MCF7 = assay: NCI DTP human tumor cell line screen (SRB); settings: Breast Cancer, 10 μM, 48 h
Procedure: as §1

MDA-MB-435 = assay: NCI DTP human tumor cell line screen (SRB); settings: Breast Cancer, 10 μM, 48 h
Procedure: as §1

MOLT-4 = assay: NCI DTP human tumor cell line screen (SRB); settings: Leukemia, 10 μM, 48 h
Procedure: as §1

NCI-H23 = assay: NCI DTP human tumor cell line screen (SRB); settings: Non-Small Cell Lung Cancer, 10 μM, 48 h
Procedure: as §1

NCI-H460 = assay: NCI DTP human tumor cell line screen (SRB); settings: Non-Small Cell Lung Cancer, 10 μM, 48 h
Procedure: as §1

NCI-H522 = assay: NCI DTP human tumor cell line screen (SRB); settings: Non-Small Cell Lung Cancer, 10 μM, 48 h
Procedure: as §1

NCI/ADR-RES = assay: NCI DTP human tumor cell line screen (SRB); settings: Breast Cancer, 10 μM, 48 h
Procedure: as §1

OVCAR-5 = assay: NCI DTP human tumor cell line screen (SRB); settings: Ovarian Cancer, 10 μM, 48 h
Procedure: as §1

SF-268 = assay: NCI DTP human tumor cell line screen (SRB); settings: CNS Cancer, 10 μM, 48 h
Procedure: as §1

SW-620 = assay: NCI DTP human tumor cell line screen (SRB); settings: Colon Cancer, 10 μM, 48 h
Procedure: as §1

TK-10 = assay: NCI DTP human tumor cell line screen (SRB); settings: Renal Cancer, 10 μM, 48 h
Procedure: as §1

UO-31 = assay: NCI DTP human tumor cell line screen (SRB); settings: Renal Cancer, 10 μM, 48 h
Procedure: as §1

[1] = tested on: approximately 60 human tumor cell lines; assay: NCI DTP human tumor cell line screen, whole panel statistics; settings: for inhibitory activities against cancer cells: DTP human tumor cell line screen, non-small cell lung, colon, breast, ovarian, leukemia, renal, melanoma, prostate, CNS cancer; for mean growth percent: mean over all cell lines tested; for mean growth percent / delta value (growth percent) / range (growth percent): 10 μM, 48 h; for delta value (growth percent) / range (growth percent): over all cell lines tested
Procedure: as §1

KM12 = assay: NCI DTP human tumor cell line screen (SRB); settings: Colon Cancer, 10 μM, 48 h
Procedure: as §1

MALME-3M = assay: NCI DTP human tumor cell line screen (SRB); settings: Melanoma, 10 μM, 48 h
Procedure: as §1

NCI-H322M = assay: NCI DTP human tumor cell line screen (SRB); settings: Non-Small Cell Lung Cancer, 10 μM, 48 h
Procedure: as §1

Row | Structure (SMILES) | Growth Percent (786-0) [%] | Growth Percent (BT-549) [%] | Growth Percent (HCC-2998) [%] | Growth Percent (HCT-15) [%] | Growth Percent (HOP-62) [%] | Growth Percent (HOP-92) [%] | Growth Percent (HT29) [%] | Growth Percent (MCF7) [%] | Growth Percent (MDA-MB-435) [%] | Growth Percent (MOLT-4) [%] | Growth Percent (NCI-H23) [%] | Growth Percent (NCI-H460) [%] | Growth Percent (NCI/ADR-RES) [%] | Growth Percent (OVCAR-5) [%] | Growth Percent (SF-268) [%] | Growth Percent (SW-620) [%] | Growth Percent (TK-10) [%] | Growth Percent (UO-31) [%] | mean growth percent [1] [%] | delta value (growth percent) [1] | also measured
1 | CC1CCC2C(C)C(OCc3ccc(C(=O)NN=Cc4ccccc4O)o3)OC3OC4(C)CCC1C32OO4 (stereo not drawn) [ART-Furan-Sal, N′-(2-hydroxybenzylidene)-5-(dihydroxyartemisinin-methyl)-furan-2-carbohydrazide] | −22.22 | 22.47 | 5.37 | 30.86 | 12.94 | 37.02 | 22.40 | 1.18 | 25.70 | −23.49 | 17.54 | −26.28 | 11.14 | 28.70 | −0.43 | 13.95 | 40.77 | −35.28 | 6.1 | 54.64 | Growth Percent (M14): −48.54%; Growth Percent (NCI-H522): −10.76%; inhibitory activities against cancer cells [1]: inhibitory activities against several types of cancer cells; range (growth percent) [1]: 89.31; mean growth percent ([1]; summary text): 6.1%
2 | CC1CCC2C(C)C(OCc3ccc(C(=O)NN=Cc4ccccc4)cc3)OC3OC4(C)CCC1C32OO4 (stereo not drawn) [ART-Phe-Bz, N′-(benzylidene)-4-(dihydroxyartemisinin-methyl)-phenyl carbohydrazide] | 26.79 | 14.60 | 22.05 | 16.27 | 52.14 | 2.94 | 18.46 | 11.63 | 12.48 | −25.73 | 30.10 | 32.58 | 19.93 | 28.19 | 35.30 | 19.48 | 19.78 | −21.11 | 17.28 | 66.68 | Growth Percent (KM12): 10.19%; Growth Percent (M14): 34.29%; Growth Percent (MALME-3M): 32.27%; Growth Percent (NCI-H322M): 53.20%; Growth Percent (NCI-H522): −9.33%; range (growth percent) [1]: 102.60
3 | Cc1ncc(CO)c(C=NNC(=O)c2ccc(COC3OC4OC5(C)CCC6C(C)CCC(C3C)C46OO5)cc2)c1O (stereo not drawn) [ART-Phe-Pyridoxal, N′-(5-hydroxy-3-hydroxymethyl-2-methyl-4-pyridylidene)-4-(dihydroxyartemisinin-methyl)-phenyl carbohydrazide] | −19.54 | −18.57 | 27.38 | 15.22 | 20.25 | 20.97 | 32.72 | 1.55 | 18.74 | −25.71 | 13.86 | −3.33 | 44.16 | 44.98 | 1.39 | 14.32 | 6.35 | 4.39 | 7.85 | 51.68 | Growth Percent (KM12): 17.87%; Growth Percent (MALME-3M): −17.79%; Growth Percent (NCI-H322M): 14.34%; Growth Percent (NCI-H522): 38.92%; inhibitory activities against cancer cells [1]: inhibitory activities against several types of cancer cells; range (growth percent) [1]: 88.81; mean growth percent ([1]; summary text): 7.85%
4 | CC1CCC2C(C)C(OCc3ccc(C(=O)NN=Cc4ccccc4O)nc3)OC3OC4(C)CCC1C32OO4 (stereo not drawn) [ART-Pyr-Sal, N′-(2-hydroxybenzylidene)-5-(dihydroxyartemisinin-methyl)-2-pyridine carbohydrazide] | −17.58 | 15.65 | 4.91 | 21.89 | 20.73 | 30.70 | 29.61 | 13.61 | 30.18 | 10.13 | 16.47 | 0.12 | 6.72 | 55.16 | 12.40 | 26.43 | 31.03 | 0.04 | 12.83 | 42.97 | Growth Percent (KM12): 29.31%; Growth Percent (M14): −9.91%; Growth Percent (MALME-3M): 8.61%; Growth Percent (NCI-H322M): 31.89%; Growth Percent (NCI-H522): 10.19%; inhibitory activities against cancer cells [1]: inhibitory activities against several types of cancer cells; range (growth percent) [1]: 85.3
5 | CC1CCC2C(C)C(OCCn3cc(C(=O)NN=Cc4ccccc4O)nn3)OC3OC4(C)CCC1C32OO4 (stereo not drawn) [ART-Triazole-Sal, N′-(2-hydroxybenzylidene)-1-(dihydroxyartemisinin-ethyl)-1H-1,2,3-triazole-4-carbohydrazide] | 1.80 | 40.56 | 25.98 | 34.01 | 24.18 | 44.42 | 31.44 | 13.62 | 35.26 | −0.29 | 30.70 | 2.83 | 15.88 | 41.28 | 21.15 | 31.03 | 38.15 | −28.61 | 22.31 | 53.47 | Growth Percent (KM12): 29.83%; Growth Percent (M14): 3.07%; Growth Percent (MALME-3M): 42.33%; Growth Percent (NCI-H322M): 27.06%; inhibitory activities against cancer cells [1]: inhibitory activities against several types of cancer cells; range (growth percent) [1]: 83.7; mean growth percent ([1]; summary text): 22.31%
